Entries after “also recorded” stand apart in the source; their conditions may differ. Where no end group is shown, it is not given here.
T1: CFP-RapA (Bacillus subtilis 168, UniProt Q00828 1-378)
T1 construct: RapA, Rap-family RRNPP-type receptor (response regulator aspartate phosphatase A) of Bacillus subtilis; rapA amplified from B. subtilis 168 genomic DNA; ecfp(Bs) is joined to the N-terminus of RapA by a GSGGV linker; also called RapA receptor; RapA-CFP; source: B. subtilis reporter strain BIB625 (ΔrapA-phrA Δspo0F), IPTG-induced from the amyE locus, in living cells; not shown: eCFP(Bs), …
T1 sequence (looked up): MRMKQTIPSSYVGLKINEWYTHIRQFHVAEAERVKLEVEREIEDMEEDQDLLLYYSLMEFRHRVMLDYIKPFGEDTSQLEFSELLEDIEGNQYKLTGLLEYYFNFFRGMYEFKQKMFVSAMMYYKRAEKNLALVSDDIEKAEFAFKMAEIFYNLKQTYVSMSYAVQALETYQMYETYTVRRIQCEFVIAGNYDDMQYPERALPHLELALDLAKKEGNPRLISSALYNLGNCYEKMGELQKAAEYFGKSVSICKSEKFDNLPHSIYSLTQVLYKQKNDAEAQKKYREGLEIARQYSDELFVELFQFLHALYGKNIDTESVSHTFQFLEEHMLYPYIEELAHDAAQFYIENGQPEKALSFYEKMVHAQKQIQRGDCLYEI

B1: PhrA (peptide)
peptide: ARNQT
notes: PhrA, the mature linear pentapeptide derived from the phrA gene product of Bacillus subtilis; also called PhrA pentapeptide; ARNQT; source: synthetic peptide (Peptides and Elephant, purity >95%)

Key:
[1] = tested on: reporter cells BIB625 (RapA-Spo0F FRET); assay: Bioassay of supernatants: PhrA depletion from medium measured with fresh reporter cells; type: cell-based, Bacillus subtilis; conditions: 10 nM PhrA, within a few minutes
Method: Induction of FRET reporters: Reporter cells were inoculated from a single colony into 5 ml of LB medium with antibiotics and incubated on a rotary shaker (Infors HT Multitron) at 180 rpm and 37 °C for 7 h. Cells were resuspended at OD600 nm = 0.003 in 5 ml of S7_50 medium and incubated for 16 h overnight. Expression of the fusion proteins was induced by resuspending the reporter cells at an OD600 nm =0.04 in 10 ml of fresh S7_50 supplemented with 100 µM IPTG in a 100-ml flask. When applicable, protein expression from a xylose-inducible promoter was induced by adding xylose at a final concentration of 1% (w/v). Cells were grown to a final OD600 nm ~1.6.
Bioassay and supernatant analysis: The supernatants were collected after centrifugation of stimulated cells. […] The supernatants were then filtered through a 0.2-µm PES membrane, and analyzed as described above with the following modification. To increase the sensitivity of the bioassay, the volume of analyzed supernatant and the incubation time were increased to VS = 1950 µl and tB = 20 min + 1 min, respectively. […]
The FRET efficiency was determined using the formula:5 FRET=CFPpost−CFPpre/CFPpost⋅100%, where CFPpre and CFPpost denote the emission levels before and after acceptor photobleaching, respectively. […] CFPpre is then evaluated at the end of the bleaching period by extrapolating the linear fit accordingly (see Fig. 2b). […]

[2] = PhrA stability in cell-free supernatant (Supplementary Fig. 5B); type: in vitro ADME
Method: Bioassay and supernatant analysis: The supernatants were collected after centrifugation of stimulated cells. Aliquots (VS = 450 µl) of the cell-free supernatants were mixed with 50 µl of a 10× suspension of fresh unstimulated reporter cells, for tB = 5 min + 1 min (time for incubation plus centrifugation) at room temperature and then processed as described above. To detect extracellular PhrA in S7_50 cultures, wild-type cells (BIB224) were grown for 5 h to an OD600 nn ~ 1.6 and pelleted by centrifugation. The supernatants were then filtered through a 0.2-µm PES membrane, and analyzed as described above with the following modification. To increase the sensitivity of the bioassay, the volume of analyzed supernatant and the incubation time were increased to VS = 1950 µl and tB = 20 min + 1 min, respectively.

CFP-RapA = biological target: T1, CFP-RapA; assay: FRET or BRET; loss of CFP-RapA/Spo0F-YFP FRET in B. subtilis reporter cells against PhrA; EC50 is the intracellular PhrA concentration of the half-maximal response, inferred by fitting all data of Figs. 4 and 5 to the pump-probe model (Hill function); conditions: one partner purified

Molecule | extracellular PhrA level after stimulation [1] | time for which bioassay FRET remained unchanged (stability) ([2]; 10 nM PhrA in cell-free supernatant, room temperature, bioassay read-out, ne = 3) | bioassay FRET during incubation in cell-free supernatant ([2]; 10 nM PhrA in cell-free supernatant, room temperature, up to at least 8 h, ne = 3) | extracellular stability ([2]; 10 nM PhrA, cell-free supernatant) | EC50 (CFP-RapA) [µM]
ARNQT [PhrA] | below the detection limit of the bioassay | at least 8 h | ~ 7% | stable in cell-free supernatants; also recorded: stable for hours | –
B1 | – | – | – | – | 38
